Measurements taken from ChEMBL document CHEMBL1201862, “PubChem BioAssay data set” (2004).
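Briefly, cells in 96-well plates were exposed to five compound concentrations for 48 h, and endpoints were estimated by linear interpolation. GI50 marks 50% less growth.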 The source made the active and inactive calls. Cut-off read from the data, not from the text of the source: active = GI50 up to about 1.1 µM and inactive = higher.

How the values were obtained:
Test in all cases: DTP human tumour cell line panel, 48 h
[1] = system: HCT-116
[2] = system: SK-MEL-2
[3] = system: Malme-3M
[4] = system: OVCAR-5
[5] = system: MCF7
[6] = system: SNB-19
[7] = system: CCRF-CEM
[8] = system: OVCAR-8
[9] = system: NCI/ADR-RES
[10] = system: TK-10
[11] = system: EKVX
[12] = system: IGROV-1
[13] = system: ACHN
[14] = system: K562
[15] = system: UO-31
[16] = system: RXF 393
[17] = system: MDA-MB-231
[18] = system: NCI-H226
[19] = system: A498
[20] = system: PC-3
[21] = system: NCI-H23
[22] = system: SR
[23] = system: MDA-N
[24] = system: LOX IMVI
[25] = system: DU-145
[26] = system: OVCAR-4
[27] = system: SK-MEL-28
[28] = system: SNB-75
[29] = system: UACC-257
[30] = system: M14
[31] = system: HT-29
[32] = system: 786-0
[33] = system: HCC 2998
[34] = system: SK-MEL-5
[35] = system: HOP-62
[36] = system: SF-539
[37] = system: SF-295
[38] = system: A549
[39] = system: MDA-MB-435
[40] = system: SN12C
[41] = system: KM12
[42] = system: NCI-H522
[43] = system: SW-620
[44] = system: COLO 205
[45] = system: T47D
[46] = system: UACC-62
[47] = system: MOLT-4
[48] = system: SK-OV-3
[49] = system: CAKI-1
[50] = system: U-251
[51] = system: SF-268
[52] = system: NCI-H460
[53] = system: HCT-15
[54] = system: BT-549
[55] = system: OVCAR-3
[56] = system: HOP-92

SMILES: CC(=O)OC(C)(C)CCC(=O)[C@](C)(O)[C@H]1[C@H](O)C[C@@]2(C)[C@@H]3CCc4c(cc(OC5OC(CO)C(O)C(O)C5O)c(O)c4C)C3(C)C(=O)C[C@]12C (stereo partly specified)
- GI50 [1]: > 100 µM (inactive)
- GI50 [2]: > 100 µM (inactive)
- GI50 [3]: > 100 µM (inactive)
- GI50 [4]: > 100 µM (inactive)
- GI50 [5]: > 100 µM (inactive)
- GI50 [6]: > 100 µM (inactive)
- GI50 [7]: > 100 µM (inactive)
- GI50 [8]: > 100 µM (inactive)
- GI50 [9]: > 100 µM (inactive)
- GI50 [10]: > 100 µM (inactive)
- GI50 [11]: > 100 µM (inactive)
- GI50 [12]: > 100 µM (inactive)
- GI50 [13]: > 100 µM (inactive)
- GI50 [14]: > 100 µM (inactive)
- GI50 [15]: > 100 µM (inactive)
- GI50 [16]: > 100 µM (inactive)
- GI50 [17]: > 100 µM (inactive)
- GI50 [18]: > 100 µM (inactive)
- GI50 [19]: > 100 µM (inactive)
- GI50 [20]: > 100 µM (inactive)
- GI50 [21]: > 100 µM (inactive)
- GI50 [22]: > 100 µM (inactive)
- GI50 [23]: > 100 µM (inactive)
- GI50 [24]: > 100 µM (inactive)
- GI50 [25]: > 100 µM (inactive)
- GI50 [26]: > 100 µM (inactive)
- GI50 [27]: > 100 µM (inactive)
- GI50 [28]: > 100 µM (inactive)
- GI50 [29]: > 100 µM (inactive)
- GI50 [30]: > 100 µM (inactive)
- GI50 [31]: > 100 µM (inactive)
- GI50 [32]: > 100 µM (inactive)
- GI50 [33]: > 100 µM (inactive)
- GI50 [34]: > 100 µM (inactive)
- GI50 [35]: > 100 µM (inactive)
- GI50 [36]: > 100 µM (inactive)
- GI50 [37]: > 100 µM (inactive)
- GI50 [38]: > 100 µM (inactive)
- GI50 [39]: > 100 µM (inactive)
- GI50 [40]: > 100 µM (inactive)
- GI50 [41]: > 100 µM (inactive)
- GI50 [42]: > 100 µM (inactive)
- GI50 [43]: > 100 µM (inactive)
- GI50 [44]: > 100 µM (inactive)
- GI50 [45]: > 100 µM (inactive)
- GI50 [46]: > 100 µM (inactive)
- GI50 [47]: > 100 µM (inactive)
- GI50 [48]: > 100 µM (inactive)
- GI50 [49]: > 100 µM (inactive)
- GI50 [50]: > 100 µM (inactive)
- GI50 [51]: > 100 µM (inactive)
- GI50 [52]: > 100 µM (inactive)
- GI50 [53]: > 100 µM
- GI50 [54]: > 100 µM (inactive)
- GI50 [55]: > 100 µM (inactive)
- GI50 [56]: > 100 µM (inactive)
